Assay results published in patent publication US20220281848A1, “PYRAZOLE-SUBSTITUTED PYRROLIDINONES AS HERBICIDES” (FMC Corporation, priority 2019, published 2022).

Assays:
Type in all cases: in vivo
Details in all cases: 19 to 21 days
[1] = system: blackgrass (Alopecurus myosuroides); assay: Test B preemergence, blackgrass
Source text: (§1) Seeds of plant species selected from blackgrass (Alopecurus myosuroides), Italian ryegrass (Lolium multiflorum), wheat, winter (winter wheat, Triticum aestivum), corn (Zea mays), large (Lg) crabgrass (Digitaria sanguinalis), giant foxtail (Setaria faberi), johnsongrass (Sorghum halepense), ragweed (common ragweed, Ambrosia elatior), soybean (Glycine max), barnyardgrass (Echinochloa crus-galli), waterhemp (common waterhemp, Amaranthus rudis), palmer pigweed (Amaranthus palmeri), and surinam grass (Brachiaria decumbens), were planted into a silt loam soil and treated preemergence with test chemicals formulated in a non-phytotoxic solvent mixture which included a surfactant.
(§2) Treated plants and controls were maintained in a greenhouse for 19 to 21 days, after which time all species were compared to controls and visually evaluated. Plant response ratings, summarized in Table B, are based on a scale of 0 to 100 where 0 is no effect and 100 is complete control.

[2] = system: wheat, winter (winter wheat, Triticum aestivum); assay: Test B preemergence, wheat, winter
Source text: as §1, §2

[3] = system: corn (Zea mays); assay: Test B preemergence, corn
Source text: as §1, §2

[4] = system: large (Lg) crabgrass (Digitaria sanguinalis); assay: Test B preemergence, large crabgrass
Source text: as §1, §2

[5] = system: giant foxtail (Setaria faberi); assay: Test B preemergence, giant foxtail
Source text: as §1, §2

[6] = system: ragweed (common ragweed, Ambrosia elatior); assay: Test B preemergence, ragweed
Source text: as §1, §2

[7] = system: barnyardgrass (Echinochloa crus-galli); assay: Test B preemergence, barnyardgrass
Source text: as §1, §2

[8] = system: waterhemp (common waterhemp, Amaranthus rudis); assay: Test B preemergence, waterhemp
Source text: as §1, §2

[9] = system: palmer pigweed (Amaranthus palmeri); assay: Test B preemergence, palmer pigweed
Source text: as §1, §2

[10] = system: corn (Zea mays); assay: Test C preemergence, corn
Source text: (§3) Seeds of plant species selected from corn (Zea mays), soybean (Glycine max), velvetleaf (Abutilon theophrasti), palmer pigweed (Amaranthus palmeri), waterhemp (common waterhemp, Amaranthus rudis), surinam grass (Brachiaria decumbens), large (Lg) crabgrass (Digitaria sanguinalis), fall panicum (Panicum dichotomiflorum), giant foxtail (Setaria faberi), ragweed (common ragweed, Ambrosia elatior), barnyardgrass (Echinochloa crus-galli), E. Black Nightshade (Solanum ptycanthum), and horseweed (Conyza canadensis), were planted into a silt loam soil and treated preemergence with test chemicals formulated in a non-phytotoxic solvent mixture which included a surfactant.
(§4) Treated plants and controls were maintained in a greenhouse for 19 to 21 days, after which time all species were compared to controls and visually evaluated. Plant response ratings, summarized in Table C, are based on a scale of 0 to 100 where 0 is no effect and 100 is complete control.

[11] = system: velvetleaf (Abutilon theophrasti); assay: Test C preemergence, velvetleaf
Source text: as §3, §4

[12] = system: palmer pigweed (Amaranthus palmeri); assay: Test C preemergence, palmer pigweed
Source text: as §3, §4

[13] = system: waterhemp (common waterhemp, Amaranthus rudis); assay: Test C preemergence, waterhemp
Source text: as §3, §4

[14] = system: surinam grass (Brachiaria decumbens); assay: Test C preemergence, surinam grass
Source text: as §3, §4

[15] = system: large (Lg) crabgrass (Digitaria sanguinalis); assay: Test C preemergence, large crabgrass
Source text: as §3, §4

[16] = system: fall panicum (Panicum dichotomiflorum); assay: Test C preemergence, fall panicum
Source text: as §3, §4

[17] = system: E. Black Nightshade (Solanum ptycanthum); assay: Test C preemergence, E. Black Nightshade
Source text: as §3, §4

[18] = system: horseweed (Conyza canadensis); assay: Test C preemergence, horseweed
Source text: as §3, §4

CN1C[C@H](c2cc(C(F)(F)F)n(C)n2)[C@@H](C(=O)Nc2cccc(F)c2F)C1=O [Compound 13, (3S,4R)—N-(2,3-difluorophenyl)-1-methyl-4-[1-methyl-5-(trifluoromethyl)-1H-pyrazol-3-yl]-2-oxo-3-pyrrolidinecarboxamide]
Plant response rating (0 no effect, 100 complete control) Blackgrass ([1]; 16 g ai/ha Preemergence): 0 | Plant response rating (0 no effect, 100 complete control) Blackgrass ([1]; 31 g ai/ha Preemergence): 0 | Plant response rating (0 no effect, 100 complete control) Blackgrass ([1]; 62 g ai/ha Preemergence): 13 | Plant response rating (0 no effect, 100 complete control) Blackgrass ([1]; 125 g ai/ha Preemergence): 18 | Plant response rating (0 no effect, 100 complete control) Wheat ([2]; 16 g ai/ha Preemergence): 3 | Plant response rating (0 no effect, 100 complete control) Wheat ([2]; 31 g ai/ha Preemergence): 20 | Plant response rating (0 no effect, 100 complete control) Wheat ([2]; 62 g ai/ha Preemergence): 40 | Plant response rating (0 no effect, 100 complete control) Wheat ([2]; 125 g ai/ha Preemergence): 63 | Plant response rating (0 no effect, 100 complete control) Corn ([3]; 16 g ai/ha Preemergence): 3 | Plant response rating (0 no effect, 100 complete control) Corn ([3]; 31 g ai/ha Preemergence): 5 | Plant response rating (0 no effect, 100 complete control) Corn ([3]; 62 g ai/ha Preemergence): 13 | Plant response rating (0 no effect, 100 complete control) Corn ([3]; 125 g ai/ha Preemergence): 48 | Plant response rating (0 no effect, 100 complete control) Crabgrass, Large ([4]; 16 g ai/ha Preemergence): 100 | Plant response rating (0 no effect, 100 complete control) Crabgrass, Large ([4]; 31 g ai/ha Preemergence): 100 | Plant response rating (0 no effect, 100 complete control) Crabgrass, Large ([4]; 62 g ai/ha Preemergence): 100 | Plant response rating (0 no effect, 100 complete control) Crabgrass, Large ([4]; 125 g ai/ha Preemergence): 100 | Plant response rating (0 no effect, 100 complete control) Foxtail, Giant ([5]; 16 g ai/ha Preemergence): 90 | Plant response rating (0 no effect, 100 complete control) Foxtail, Giant ([5]; 31 g ai/ha Preemergence): 95 | Plant response rating (0 no effect, 100 complete control) Foxtail, Giant ([5]; 62 g ai/ha Preemergence): 98 | Plant response rating (0 no effect, 100 complete control) Foxtail, Giant ([5]; 125 g ai/ha Preemergence): 98 | Plant response rating (0 no effect, 100 complete control) Ragweed ([6]; 16 g ai/ha Preemergence): 0 | Plant response rating (0 no effect, 100 complete control) Ragweed ([6]; 31 g ai/ha Preemergence): 0 | Plant response rating (0 no effect, 100 complete control) Ragweed ([6]; 62 g ai/ha Preemergence): 0 | Plant response rating (0 no effect, 100 complete control) Ragweed ([6]; 125 g ai/ha Preemergence): 0 | Plant response rating (0 no effect, 100 complete control) Barnyardgrass ([7]; 16 g ai/ha Preemergence): 85 | Plant response rating (0 no effect, 100 complete control) Barnyardgrass ([7]; 31 g ai/ha Preemergence): 95 | Plant response rating (0 no effect, 100 complete control) Barnyardgrass ([7]; 62 g ai/ha Preemergence): 95 | Plant response rating (0 no effect, 100 complete control) Barnyardgrass ([7]; 125 g ai/ha Preemergence): 97 | Plant response rating (0 no effect, 100 complete control) Waterhemp ([8]; 16 g ai/ha Preemergence): 0 | Plant response rating (0 no effect, 100 complete control) Waterhemp ([8]; 31 g ai/ha Preemergence): 0 | Plant response rating (0 no effect, 100 complete control) Waterhemp ([8]; 62 g ai/ha Preemergence): 0 | Plant response rating (0 no effect, 100 complete control) Waterhemp ([8]; 125 g ai/ha Preemergence): 15 | Plant response rating (0 no effect, 100 complete control) Pigweed, Palmer ([9]; 16 g ai/ha Preemergence): 0 | Plant response rating (0 no effect, 100 complete control) Pigweed, Palmer ([9]; 31 g ai/ha Preemergence): 0 | Plant response rating (0 no effect, 100 complete control) Pigweed, Palmer ([9]; 62 g ai/ha Preemergence): 0 | Plant response rating (0 no effect, 100 complete control) Pigweed, Palmer ([9]; 125 g ai/ha Preemergence): 0 | Plant response rating (0 no effect, 100 complete control) Corn ([10]; 4 g ai/ha Preemergence): 0 | Plant response rating (0 no effect, 100 complete control) Corn ([10]; 8 g ai/ha Preemergence): 0 | Plant response rating (0 no effect, 100 complete control) Corn ([10]; 16 g ai/ha Preemergence): 0 | Plant response rating (0 no effect, 100 complete control) Corn ([10]; 31 g ai/ha Preemergence): 0 | Plant response rating (0 no effect, 100 complete control) Corn ([10]; 62 g ai/ha Preemergence): 0 | Plant response rating (0 no effect, 100 complete control) Corn ([10]; 125 g ai/ha Preemergence): 15 | Plant response rating (0 no effect, 100 complete control) Velvetleaf ([11]; 4 g ai/ha Preemergence): 0 | Plant response rating (0 no effect, 100 complete control) Velvetleaf ([11]; 8 g ai/ha Preemergence): 0 | Plant response rating (0 no effect, 100 complete control) Velvetleaf ([11]; 16 g ai/ha Preemergence): 0 | Plant response rating (0 no effect, 100 complete control) Velvetleaf ([11]; 31 g ai/ha Preemergence): 0 | Plant response rating (0 no effect, 100 complete control) Velvetleaf ([11]; 62 g ai/ha Preemergence): 0 | Plant response rating (0 no effect, 100 complete control) Velvetleaf ([11]; 125 g ai/ha Preemergence): 0 | Plant response rating (0 no effect, 100 complete control) Pigweed, Palmer ([12]; 4 g ai/ha Preemergence): 0 | Plant response rating (0 no effect, 100 complete control) Pigweed, Palmer ([12]; 8 g ai/ha Preemergence): 0 | Plant response rating (0 no effect, 100 complete control) Pigweed, Palmer ([12]; 16 g ai/ha Preemergence): 0 | Plant response rating (0 no effect, 100 complete control) Pigweed, Palmer ([12]; 31 g ai/ha Preemergence): 0 | Plant response rating (0 no effect, 100 complete control) Pigweed, Palmer ([12]; 62 g ai/ha Preemergence): 0 | Plant response rating (0 no effect, 100 complete control) Pigweed, Palmer ([12]; 125 g ai/ha Preemergence): 28 | Plant response rating (0 no effect, 100 complete control) Waterhemp ([13]; 4 g ai/ha Preemergence): 0 | Plant response rating (0 no effect, 100 complete control) Waterhemp ([13]; 8 g ai/ha Preemergence): 0 | Plant response rating (0 no effect, 100 complete control) Waterhemp ([13]; 16 g ai/ha Preemergence): 0 | Plant response rating (0 no effect, 100 complete control) Waterhemp ([13]; 31 g ai/ha Preemergence): 0 | Plant response rating (0 no effect, 100 complete control) Waterhemp ([13]; 62 g ai/ha Preemergence): 20 | Plant response rating (0 no effect, 100 complete control) Waterhemp ([13]; 125 g ai/ha Preemergence): 20 | Plant response rating (0 no effect, 100 complete control) Surinam Grass ([14]; 4 g ai/ha Preemergence): 30 | Plant response rating (0 no effect, 100 complete control) Surinam Grass ([14]; 8 g ai/ha Preemergence): 30 | Plant response rating (0 no effect, 100 complete control) Surinam Grass ([14]; 16 g ai/ha Preemergence): 58 | Plant response rating (0 no effect, 100 complete control) Surinam Grass ([14]; 31 g ai/ha Preemergence): 90 | Plant response rating (0 no effect, 100 complete control) Surinam Grass ([14]; 62 g ai/ha Preemergence): 89 | Plant response rating (0 no effect, 100 complete control) Surinam Grass ([14]; 125 g ai/ha Preemergence): 99 | Plant response rating (0 no effect, 100 complete control) Crabgrass, Large ([15]; 4 g ai/ha Preemergence): 70 | Plant response rating (0 no effect, 100 complete control) Crabgrass, Large ([15]; 8 g ai/ha Preemergence): 89 | Plant response rating (0 no effect, 100 complete control) Crabgrass, Large ([15]; 16 g ai/ha Preemergence): 98 | Plant response rating (0 no effect, 100 complete control) Crabgrass, Large ([15]; 31 g ai/ha Preemergence): 98 | Plant response rating (0 no effect, 100 complete control) Crabgrass, Large ([15]; 62 g ai/ha Preemergence): 98 | Plant response rating (0 no effect, 100 complete control) Crabgrass, Large ([15]; 125 g ai/ha Preemergence): 98 | Plant response rating (0 no effect, 100 complete control) Panicum ([16]; 4 g ai/ha Preemergence): 0 | Plant response rating (0 no effect, 100 complete control) Panicum ([16]; 8 g ai/ha Preemergence): 0 | Plant response rating (0 no effect, 100 complete control) Panicum ([16]; 16 g ai/ha Preemergence): 0 | Plant response rating (0 no effect, 100 complete control) Panicum ([16]; 31 g ai/ha Preemergence): 0 | Plant response rating (0 no effect, 100 complete control) Panicum ([16]; 62 g ai/ha Preemergence): 53 | Plant response rating (0 no effect, 100 complete control) Panicum ([16]; 125 g ai/ha Preemergence): 48 | Plant response rating (0 no effect, 100 complete control) Nightshade ([17]; 4 g ai/ha Preemergence): 0 | Plant response rating (0 no effect, 100 complete control) Nightshade ([17]; 8 g ai/ha Preemergence): 0 | Plant response rating (0 no effect, 100 complete control) Nightshade ([17]; 16 g ai/ha Preemergence): 0 | Plant response rating (0 no effect, 100 complete control) Nightshade ([17]; 31 g ai/ha Preemergence): 0 | Plant response rating (0 no effect, 100 complete control) Nightshade ([17]; 62 g ai/ha Preemergence): 0 | Plant response rating (0 no effect, 100 complete control) Nightshade ([17]; 125 g ai/ha Preemergence): 63 | Plant response rating (0 no effect, 100 complete control) Horseweed ([18]; 4 g ai/ha Preemergence): 0 | Plant response rating (0 no effect, 100 complete control) Horseweed ([18]; 8 g ai/ha Preemergence): 0 | Plant response rating (0 no effect, 100 complete control) Horseweed ([18]; 16 g ai/ha Preemergence): 0 | Plant response rating (0 no effect, 100 complete control) Horseweed ([18]; 31 g ai/ha Preemergence): 30 | Plant response rating (0 no effect, 100 complete control) Horseweed ([18]; 62 g ai/ha Preemergence): 45 | Plant response rating (0 no effect, 100 complete control) Horseweed ([18]; 125 g ai/ha Preemergence): 65
